pIC50: −log10 of the molar value.

This test has as its target T1, Human SGLT2 (hSGLT2) (Homo sapiens, UniProt P31639).
T1 construct: expressed in transfected cells
T1 sequence (P31639 1-672): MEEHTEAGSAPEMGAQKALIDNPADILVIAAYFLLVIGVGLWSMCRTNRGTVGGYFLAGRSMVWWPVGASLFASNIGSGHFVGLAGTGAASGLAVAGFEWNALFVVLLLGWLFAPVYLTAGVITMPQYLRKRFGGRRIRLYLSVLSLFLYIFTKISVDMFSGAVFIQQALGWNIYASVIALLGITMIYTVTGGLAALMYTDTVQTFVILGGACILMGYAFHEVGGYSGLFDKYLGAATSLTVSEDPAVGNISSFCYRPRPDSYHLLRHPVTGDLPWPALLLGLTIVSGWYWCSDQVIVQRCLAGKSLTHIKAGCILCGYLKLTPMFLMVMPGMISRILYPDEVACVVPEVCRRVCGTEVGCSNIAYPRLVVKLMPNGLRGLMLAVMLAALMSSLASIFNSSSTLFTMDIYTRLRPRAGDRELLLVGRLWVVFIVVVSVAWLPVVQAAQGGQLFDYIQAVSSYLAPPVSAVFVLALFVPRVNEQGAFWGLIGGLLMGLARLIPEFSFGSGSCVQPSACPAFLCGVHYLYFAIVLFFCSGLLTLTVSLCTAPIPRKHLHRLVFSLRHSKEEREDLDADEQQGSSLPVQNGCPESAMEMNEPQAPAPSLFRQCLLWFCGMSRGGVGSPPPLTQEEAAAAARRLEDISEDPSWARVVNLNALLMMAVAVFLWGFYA
As to the kind of experiment: Sodium-dependent glucose transport (14C-AMG uptake) assay in CHO cells stably expressing hSGLT2. In kind it is cell-based. The note with it: CHO cells expressing hSGLT2, 14C-AMG uptake, 37° C. for 2 h; single determinations; read-out: hSGLT2 Inhibitory Activity IC50. An excerpt: Cloning and Cell Line Construction for Human SGLT2
Human SGLT2 (hSGLT2) gene was amplified by PCR from cDNA-Human Adult Normal Tissue Kidney (Invitrogen). The hSGLT2 sequence was cloned into pcDNA3.1(+) for mammalian expression and were stably transfected into chinese hamster ovary (CHO) cells. SGLT2-expressing clones were selected based on resistance to G418 antibiotic (Geneticin) and activity in the ^14C-α-methyl-D-glucopyranoside (^14C-AMG) uptake assay.
Inhibitory Effects on Human SGLT2 Activities
For sodium-dependent glucose transport assay, cells expressing hSGLT2 were seeded into a 96-well culture plate at a density of 5×10^4 cells/well in RPMI medium 1640 containing 10% fetal bovine serum. The cells were used 1 day after plating. They were incubated in pretreatment buffer (10 mM HEPES, 5 mM Tris, 140 mM choline chloride, 2 mM KCl, 1 mM CaCl2, and 1 mM MgCl2, pH 7.4) at 37° C. for 10 min. They were then incubated in uptake buffer (10 mM HEPES, 5 mM Tris, 140 mM NaCl, 2 mM KCl, 1 mM CaCl2, 1 mM MgCl2, and 1 mM ^14C-nonlabeled AMG, pH 7.4) containing ^14C-labeled (8 μM) and inhibitor or dimethylsulfoxide (DMSO) vehicle at 37° C. for 2 h. Cells were washed twice with washing buffer (pretreatment buffer containing 10 mM AMG at room temperature) and then the radioactivity was measured using a liquid scintillation counter. IC50 was determined by nonlinear regression analysis using GraphPad PRISM [Katsuno, K. et al. J. Pharmacol. Exp. Ther. 2007, 320, 323-330; Han, S. et al. Deabetes, 2008, 57, 1723-1729].
With `OC[C@H]1O[C@@H](c2ccc(C(F)(F)F)c(Cc3ncc(-c4cccs4)s3)c2)[C@H](O)[C@@H](O)[C@@H]1O` [Example 49, (2R,3S,4R,5R,6S)-2-(Hydroxymethyl)-6-(3-((5-(thiophen-2-yl)thiazol-2-yl)methyl)-4-(trifluoromethyl)phenyl)tetrahydro-2H-pyran-3,4,5-triol], the pIC50 (commonly the negative decadic logarithm of the IC50, by convention in mol/L) was 7.77.
With `C[C@H]1O[C@@H](c2ccc(Cl)c(Cc3ncc(-c4ccco4)s3)c2)[C@H](O)[C@@H](O)[C@@H]1O` [Example 146, (2S,3R,4S,5S,6R)-2-(4-Chloro-3-((5-(furan-2-yl)thiazol-2-yl)methyl)phenyl)-6-methyl-tetrahydro-2H-pyran-3,4,5-triol], the pIC50 is 8.15.
Turning to `OC[C@H]1O[C@@H](c2ccc(F)c(Cc3ncc(-c4ccc(F)cc4)s3)c2)[C@H](O)[C@@H](O)[C@@H]1O` [Example 45, (2S,3R,4R,5S,6R)-2-(4-Fluoro-3-((5-(4-fluorophenyl)thiazol-2-yl)methyl)phenyl)-6-(hydroxymethyl)tetrahydro-2H-pyran-3,4,5-triol], the pIC50 was 7.32.
As to `OC[C@H]1O[C@@H](c2ccc(C(F)(F)F)c(Cc3ncc(-c4ccco4)s3)c2)[C@H](O)[C@@H](O)[C@@H]1O` [Example 4, (2S,3R,4R,5S,6R)-2-(3-((5-(Furan-2-yl)thiazol-2-yl)methyl)-4-(trifluoromethyl)phenyl)-6-(hydroxymethyl)-tetrahydro-2H-pyran-3,4,5-triol], the negative-log IC50 (pIC50) is 8.01.
Consider `OC[C@H]1O[C@@H](c2ccc(Cl)c(Cc3ncc(-c4ccoc4)s3)c2)[C@H](O)[C@@H](O)[C@@H]1O` [Example 6, (2S,3R,4R,5S,6R)-2-(4-Chloro-3-((5-(furan-3-yl)thiazol-2-yl)methyl)phenyl)-6-(hydroxymethyl)-tetrahydro-2H-pyran-3,4,5-triol], for which the pIC50 was 8.20.
Turning to `OC[C@H]1O[C@@H](c2ccc(C(F)(F)F)c(Cc3ncc(-c4ccc(F)cc4)s3)c2)[C@H](O)[C@@H](O)[C@@H]1O` [Example 52, (2S,3R,4R,5S,6R)-2-(3-((5-(4-Fluorophenyl)thiazol-2-yl)methyl)-4-(trifluoromethyl)phenyl)-6-(hydroxymethyl)tetrahydro-2H-pyran-3,4,5-triol], the pIC50 was 7.06.
The same measure for `Cc1ccc(S(=O)(=O)OC[C@H]2O[C@@H](c3ccc(Cl)c(Cc4ncc(-c5ccco5)s4)c3)[C@H](O)[C@@H](O)[C@@H]2O)cc1` [Example 138, ((2R,3S,4R,5R,6S)-6-(4-Chloro-3-((5-(furan-2-yl)thiazol-2-yl)methyl)phenyl)-3,4,5-trihydroxy-tetrahydro-2H-pyran-2-yl)methyl 4-methylbenzenesulfonate]: 6.81; for `CCCSc1ncc(Cc2cc([C@@H]3O[C@H](CO)[C@@H](O)[C@H](O)[C@H]3O)ccc2Cl)s1` [Example 198, (2S,3R,4R,5S,6R)-2-(4-Chloro-3-((2-(propylthio)thiazol-5-yl)methyl)phenyl)-6-(hydroxymethyl)tetrahydro-2H-pyran-3,4,5-triol]: 7.81; for `OC[C@H]1O[C@@H](c2ccc(Cl)c(Cc3ncc(-c4nccs4)s3)c2)[C@H](O)[C@@H](O)[C@@H]1O` [Example 9, (2S,3R,4R,5S,6R)-2-(3-(2,5′-Bithiazol-2′-ylmethyl)-4-chlorophenyl)-6-(hydroxymethyl)-tetrahydro-2H-pyran-3,4,5-triol]: 8.13.
In the case of `Cc1ccc(-c2cnc(Cc3cc([C@@H]4O[C@H](CO)[C@@H](O)[C@H](O)[C@H]4O)ccc3C)s2)cc1` [Example 36, (2R,3S,4R,5R,6S)-2-(Hydroxymethyl)-6-(4-methyl-3-((5-p-tolylthiazol-2-yl)methyl)phenyl)tetrahydro-2H-pyran-3,4,5-triol] it was 7.67; in that of `CCCOc1cnc(Cc2cc([C@@H]3O[C@H](CO)[C@@H](O)[C@H](O)[C@H]3O)ccc2Cl)s1` [Example 22, (2S,3R,4R,5S,6R)-2-(4-Chloro-3-((5-propoxythiazol-2-yl)methyl)phenyl)-6-(hydroxymethyl)-tetrahydro-2H-pyran-3,4,5-triol], 7.91.
Turning to `OC[C@H]1O[C@@H](c2ccc(Cl)c(C3(c4ncc(-c5cccs5)s4)CC3)c2)[C@H](O)[C@@H](O)[C@@H]1O` [Example 29, (2S,3R,4R,5S,6R)-2-(4-Chloro-3-(1-(5-(thiophen-2-yl)thiazol-2-yl)cyclopropyl)phenyl)-6-(hydroxymethyl)tetrahydro-2H-pyran-3,4,5-triol], the negative logarithm of the IC50 (pIC50) is 7.41.
The same measure for `OC[C@H]1O[C@@H](c2cc(Cc3ncc(-c4ccc(F)cc4)s3)c(O)c3ccccc23)[C@H](O)[C@@H](O)[C@@H]1O` [Example 123, (2S,3R,4R,5S,6R)-2-(3-((5-(4-Fluorophenyl)thiazol-2-yl)methyl)-4-hydroxynaphthalen-1-yl)-6-(hydroxymethyl)-tetrahydro-2H-pyran-3,4,5-triol]: 7.24; for `OC[C@H]1O[C@@H](c2ccc(Cl)c(Cc3ncc(-c4ccccn4)s3)c2)[C@H](O)[C@@H](O)[C@@H]1O` [Example 10, (2S,3R,4R,5S,6R)-2-(4-Chloro-3-((5-(pyridin-2-yl)thiazol-2-yl)methyl)phenyl)-6-(hydroxymethyl)-tetrahydro-2H-pyran-3,4,5-triol]: 8.16; for `CCOc1cc(Cl)c(Cc2ncc(-c3ccccc3)s2)cc1[C@@H]1O[C@H](CO)[C@@H](O)[C@H](O)[C@H]1O` [Example 81, (2S,3R,4R,5S,6R)-2-(4-Chloro-2-ethoxy-5-((5-phenylthiazol-2-yl)methyl)phenyl)-6-(hydroxymethyl)tetrahydro-2H-pyran-3,4,5-triol]: 8.54.
As for `OC[C@H]1O[C@@H](c2ccc(Cl)c(Cc3cnc(-c4ccc(Cl)s4)s3)c2)[C@H](O)[C@@H](O)[C@@H]1O` [Example 189, (2S,3R,4R,5S,6R)-2-(4-Chloro-3-((2-(5-chlorothiophen-2-yl)thiazol-5-yl)methyl)phenyl)-6-(hydroxymethyl)tetrahydro-2H-pyran-3,4,5-triol], the negative logarithm of the IC50 (pIC50) was 8.06.
The same measure for `CC(C)(C)OC(=O)OC[C@H]1O[C@@H](c2ccc(Cl)c(Cc3ncc(-c4ccco4)s3)c2)[C@H](O)[C@@H](O)[C@@H]1O` [Example 162, tert-Butyl ((2R,3S,4R,5R,6S)-6-(4-chloro-3-((5-(furan-2-yl)thiazol-2-yl)methyl)phenyl)-3,4,5-trihydroxytetrahydro-2H-pyran-2-yl)methyl carbonate]: 7.10; for `OC[C@H]1O[C@@H](c2ccc(Cl)c(Cc3cnc(-c4ccno4)s3)c2)[C@H](O)[C@@H](O)[C@@H]1O` [Example 192, (2S,3R,4R,5S,6R)-2-(4-Chloro-3-((2-(isoxazol-5-yl)thiazol-5-yl)methyl)phenyl)-6-(hydroxymethyl)tetrahydro-2H-pyran-3,4,5-triol]: 7.69.
For the molecule `COc1c(Cc2ncc(C3CCCCC3)s2)cc([C@@H]2O[C@H](CO)[C@@H](O)[C@H](O)[C@H]2O)c2ccccc12` [Example 102, (2S,3R,4R,5S,6R)-2-(3-((5-Cyclohexylthiazol-2-yl)methyl)-4-methoxynaphthalen-1-yl)-6-(hydroxymethyl)-tetrahydro-2H-pyran-3,4,5-triol], the pIC50 was 7.30.
